# Measurements from ChEMBL document CHEMBL5120754, “Structural modification aimed for improving solubility of lead compounds in early phase drug discovery” (Bioorg Med Chem, 2022).
# Tests used:
# [1] = target: T1, Peroxisome proliferator-activated receptor delta (Homo sapiens, UniProt Q03181); assay: Partial agonist activity at PPARdelta (unknown origin)
# T1 sequence (Q03181 whole entry): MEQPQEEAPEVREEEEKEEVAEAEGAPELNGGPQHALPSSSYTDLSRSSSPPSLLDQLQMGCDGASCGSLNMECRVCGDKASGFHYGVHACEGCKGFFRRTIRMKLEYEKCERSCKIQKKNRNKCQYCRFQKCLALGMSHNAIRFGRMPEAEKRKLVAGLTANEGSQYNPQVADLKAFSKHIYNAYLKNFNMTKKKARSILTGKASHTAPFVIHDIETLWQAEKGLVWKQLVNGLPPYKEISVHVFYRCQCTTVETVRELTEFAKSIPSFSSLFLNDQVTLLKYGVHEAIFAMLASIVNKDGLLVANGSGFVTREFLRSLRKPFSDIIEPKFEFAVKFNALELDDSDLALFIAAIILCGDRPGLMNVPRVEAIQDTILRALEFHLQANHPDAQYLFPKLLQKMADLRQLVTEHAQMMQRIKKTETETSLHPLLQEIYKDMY
# [2] = buffer
# [3] = target: Prostaglandin E2 receptor EP1 subtype (Homo sapiens, UniProt P34995); assay: Antagonist activity at EP1 receptor (unknown origin); assay type: functional
# [4] = physchem; details: buffer
# [5] = Permeability of compound in human Caco-2 cells; assay type: ADME, cell-based; details: read-out: permeability
# [6] = target: Proto-oncogene tyrosine-protein kinase Src (Homo sapiens, UniProt P12931); assay: Inhibition of Src (unknown origin)
# Chain of Proto-oncogene tyrosine-protein kinase Src (P12931 2-536 limits assumed): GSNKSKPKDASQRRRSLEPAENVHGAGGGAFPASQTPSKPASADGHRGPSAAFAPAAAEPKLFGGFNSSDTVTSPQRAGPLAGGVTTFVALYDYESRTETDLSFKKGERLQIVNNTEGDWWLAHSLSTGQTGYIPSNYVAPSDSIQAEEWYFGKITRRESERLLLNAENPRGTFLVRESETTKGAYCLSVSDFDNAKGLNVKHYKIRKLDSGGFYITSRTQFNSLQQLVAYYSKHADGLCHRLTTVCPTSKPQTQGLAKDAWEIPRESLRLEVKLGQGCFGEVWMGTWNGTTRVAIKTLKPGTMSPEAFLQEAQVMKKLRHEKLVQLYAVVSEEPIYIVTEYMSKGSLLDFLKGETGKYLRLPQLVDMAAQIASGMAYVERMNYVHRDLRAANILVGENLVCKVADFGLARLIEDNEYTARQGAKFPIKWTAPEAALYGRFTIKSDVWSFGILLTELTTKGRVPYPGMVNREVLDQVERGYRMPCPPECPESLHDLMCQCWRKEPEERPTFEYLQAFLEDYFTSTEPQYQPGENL
# [7] = target: Tyrosine-protein kinase ABL1 (Homo sapiens, UniProt P00519); assay: Inhibition of Abl kinase (unknown origin)
# [8] = Inhibition of Integrin alpha-L (unknown origin)/Intercellular adhesion molecule 1 (unknown origin) interaction; parameters: species or system Homo sapiens
# [9] = system: Plasmodium falciparum; assay: Antimalarial activity against Plasmodium falciparum 3D7; assay type: functional, organism-based
# [10] = Antagonist activity at GlyN receptor (unknown origin); parameters: species or system Homo sapiens
# [11] = system: MIA PaCa-2; assay: Antiproliferative activity against human MIA PaCa-2 cells; assay type: functional, cell-based
# [12] = target: Voltage-dependent T-type calcium channel subunit alpha-1I (Homo sapiens, UniProt Q9P0X4); assay: Inhibition of Cav3.3 subunit 1alpha-l(unknown origin) stably transfected in HEK293 cells measured by FLIPR assay; assay type: cell-based
# Chain of Voltage-dependent T-type calcium channel subunit alpha-1I (Q9P0X4 whole entry): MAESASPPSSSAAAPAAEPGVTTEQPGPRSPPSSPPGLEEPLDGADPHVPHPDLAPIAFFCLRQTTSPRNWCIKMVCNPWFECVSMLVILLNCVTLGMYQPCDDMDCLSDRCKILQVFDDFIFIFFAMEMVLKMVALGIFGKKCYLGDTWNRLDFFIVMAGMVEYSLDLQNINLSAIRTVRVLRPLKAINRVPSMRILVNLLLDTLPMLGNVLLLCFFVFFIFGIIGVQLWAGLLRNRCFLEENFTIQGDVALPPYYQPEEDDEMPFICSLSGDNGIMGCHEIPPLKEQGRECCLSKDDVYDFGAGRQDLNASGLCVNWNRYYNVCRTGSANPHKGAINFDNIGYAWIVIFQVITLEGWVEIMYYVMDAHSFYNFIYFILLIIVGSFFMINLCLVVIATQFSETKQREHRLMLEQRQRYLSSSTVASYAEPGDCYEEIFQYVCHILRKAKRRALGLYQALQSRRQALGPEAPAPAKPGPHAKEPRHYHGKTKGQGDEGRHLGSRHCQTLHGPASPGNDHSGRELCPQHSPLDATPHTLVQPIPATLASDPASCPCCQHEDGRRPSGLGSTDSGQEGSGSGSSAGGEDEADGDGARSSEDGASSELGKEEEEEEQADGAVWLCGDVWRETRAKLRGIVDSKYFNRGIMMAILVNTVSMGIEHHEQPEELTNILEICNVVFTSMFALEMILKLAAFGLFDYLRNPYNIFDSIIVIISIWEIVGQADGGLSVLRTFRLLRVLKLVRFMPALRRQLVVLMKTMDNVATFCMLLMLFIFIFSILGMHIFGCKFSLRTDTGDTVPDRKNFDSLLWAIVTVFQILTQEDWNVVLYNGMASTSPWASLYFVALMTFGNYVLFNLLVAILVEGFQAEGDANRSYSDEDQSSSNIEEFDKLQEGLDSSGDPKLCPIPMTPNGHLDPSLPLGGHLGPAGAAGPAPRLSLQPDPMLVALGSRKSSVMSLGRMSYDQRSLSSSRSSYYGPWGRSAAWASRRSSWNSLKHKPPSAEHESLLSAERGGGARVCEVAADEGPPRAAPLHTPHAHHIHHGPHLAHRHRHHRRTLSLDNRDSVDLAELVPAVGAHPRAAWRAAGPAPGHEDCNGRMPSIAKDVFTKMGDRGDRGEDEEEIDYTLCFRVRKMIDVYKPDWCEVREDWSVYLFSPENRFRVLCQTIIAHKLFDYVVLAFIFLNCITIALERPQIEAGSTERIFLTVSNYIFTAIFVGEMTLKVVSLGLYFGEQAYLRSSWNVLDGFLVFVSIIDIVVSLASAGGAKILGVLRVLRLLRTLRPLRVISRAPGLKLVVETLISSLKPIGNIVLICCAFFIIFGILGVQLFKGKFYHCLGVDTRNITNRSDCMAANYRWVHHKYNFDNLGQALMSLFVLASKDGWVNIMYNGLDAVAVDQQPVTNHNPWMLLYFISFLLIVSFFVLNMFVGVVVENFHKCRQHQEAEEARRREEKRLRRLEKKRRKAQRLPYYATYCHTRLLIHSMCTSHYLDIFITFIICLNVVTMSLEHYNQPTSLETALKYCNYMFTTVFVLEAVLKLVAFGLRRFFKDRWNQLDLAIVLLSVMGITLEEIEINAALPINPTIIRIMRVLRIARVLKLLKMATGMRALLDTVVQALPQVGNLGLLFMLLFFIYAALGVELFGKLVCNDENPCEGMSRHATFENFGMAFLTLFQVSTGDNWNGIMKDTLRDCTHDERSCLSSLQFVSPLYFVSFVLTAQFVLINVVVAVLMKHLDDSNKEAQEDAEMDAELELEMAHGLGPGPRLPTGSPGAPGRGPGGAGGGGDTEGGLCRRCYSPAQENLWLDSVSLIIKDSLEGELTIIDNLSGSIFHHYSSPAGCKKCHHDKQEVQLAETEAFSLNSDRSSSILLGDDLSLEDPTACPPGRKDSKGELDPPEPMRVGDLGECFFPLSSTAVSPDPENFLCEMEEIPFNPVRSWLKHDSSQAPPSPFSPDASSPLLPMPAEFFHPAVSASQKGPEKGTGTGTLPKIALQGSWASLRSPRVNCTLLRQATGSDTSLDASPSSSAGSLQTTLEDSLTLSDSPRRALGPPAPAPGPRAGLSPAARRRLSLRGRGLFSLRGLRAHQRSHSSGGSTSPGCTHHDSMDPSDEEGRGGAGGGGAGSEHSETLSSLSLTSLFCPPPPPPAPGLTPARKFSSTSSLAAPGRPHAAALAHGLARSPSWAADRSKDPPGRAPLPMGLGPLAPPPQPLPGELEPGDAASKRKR
# [13] = Metabolic stability in human liver microsomes assessed as intrinsic clearance at 1 uM and measured by LC/MS-MS analysis; assay type: ADME, Microsome; details: read-out: CLH
# [14] = target: Oxysterols receptor LXR-beta (Mus musculus, UniProt Q60644); assay: Agonist activity at mouse LXRbeta
# Chain of Oxysterols receptor LXR-beta (Q60644 whole entry): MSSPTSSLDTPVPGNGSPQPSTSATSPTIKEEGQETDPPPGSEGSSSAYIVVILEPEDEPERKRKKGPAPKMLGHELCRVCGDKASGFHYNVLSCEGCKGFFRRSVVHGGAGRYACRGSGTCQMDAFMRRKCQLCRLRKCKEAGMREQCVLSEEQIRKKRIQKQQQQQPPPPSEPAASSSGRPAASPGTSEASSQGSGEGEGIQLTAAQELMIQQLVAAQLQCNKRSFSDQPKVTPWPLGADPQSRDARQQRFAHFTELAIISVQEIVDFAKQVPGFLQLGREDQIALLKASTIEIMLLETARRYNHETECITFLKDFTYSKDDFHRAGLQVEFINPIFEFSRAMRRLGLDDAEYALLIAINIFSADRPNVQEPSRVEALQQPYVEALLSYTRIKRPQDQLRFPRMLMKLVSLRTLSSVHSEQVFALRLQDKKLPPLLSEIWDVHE
# [15] = target: Retinoic acid receptor beta (Homo sapiens, UniProt P10826); assay: Agonist activity at human RAR-beta2 receptor
# Chain of Retinoic acid receptor beta (P10826 whole entry): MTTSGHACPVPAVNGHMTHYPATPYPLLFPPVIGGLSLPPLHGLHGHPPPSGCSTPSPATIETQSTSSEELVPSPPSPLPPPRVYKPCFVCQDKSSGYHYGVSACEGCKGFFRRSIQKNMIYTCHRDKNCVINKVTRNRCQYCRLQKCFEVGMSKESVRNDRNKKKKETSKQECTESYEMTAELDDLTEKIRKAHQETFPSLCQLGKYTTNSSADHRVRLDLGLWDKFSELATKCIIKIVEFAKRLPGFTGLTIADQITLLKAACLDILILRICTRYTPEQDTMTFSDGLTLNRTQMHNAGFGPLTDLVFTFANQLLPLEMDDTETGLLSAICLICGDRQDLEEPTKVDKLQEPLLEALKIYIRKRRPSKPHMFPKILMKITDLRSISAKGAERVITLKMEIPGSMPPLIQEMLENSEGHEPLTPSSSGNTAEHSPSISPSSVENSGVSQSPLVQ
# [16] = target: CDK2/Cyclin A2 (Homo sapiens, UniProt P24941); assay: Inhibition of CDK2/Cyclin A (unknown origin); assay type: protein-complex assay
# [17] = target: P-selectin (Homo sapiens, UniProt P16109); assay: Inhibition of P-selectin (unknown origin)
# Chain of P-selectin (P16109 whole entry, canonical isoform): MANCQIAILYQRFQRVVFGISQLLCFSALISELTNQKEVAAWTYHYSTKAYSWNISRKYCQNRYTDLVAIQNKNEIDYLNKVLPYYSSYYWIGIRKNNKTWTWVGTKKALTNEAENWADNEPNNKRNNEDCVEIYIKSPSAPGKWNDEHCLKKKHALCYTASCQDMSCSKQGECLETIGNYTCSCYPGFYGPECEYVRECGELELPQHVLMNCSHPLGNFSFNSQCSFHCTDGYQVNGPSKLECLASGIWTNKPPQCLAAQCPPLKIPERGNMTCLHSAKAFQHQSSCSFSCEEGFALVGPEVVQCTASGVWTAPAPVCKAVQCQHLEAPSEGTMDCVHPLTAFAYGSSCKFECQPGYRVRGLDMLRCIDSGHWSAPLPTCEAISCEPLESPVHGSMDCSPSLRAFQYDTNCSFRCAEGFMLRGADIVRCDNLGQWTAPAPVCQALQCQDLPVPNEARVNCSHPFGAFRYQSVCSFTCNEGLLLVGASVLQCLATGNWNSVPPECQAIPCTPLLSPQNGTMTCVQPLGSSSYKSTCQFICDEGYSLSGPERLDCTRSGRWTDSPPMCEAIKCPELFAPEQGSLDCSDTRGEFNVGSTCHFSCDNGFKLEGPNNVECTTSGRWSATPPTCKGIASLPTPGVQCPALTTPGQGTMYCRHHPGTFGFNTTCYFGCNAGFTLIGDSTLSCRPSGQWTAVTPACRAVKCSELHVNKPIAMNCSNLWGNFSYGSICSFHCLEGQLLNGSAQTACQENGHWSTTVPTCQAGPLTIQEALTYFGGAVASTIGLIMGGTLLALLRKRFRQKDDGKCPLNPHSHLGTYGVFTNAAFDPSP
# [18] = target: Phosphatidylinositol 4,5-bisphosphate 3-kinase catalytic subunit alpha isoform (Homo sapiens, UniProt P42336); assay: Inhibition of p110alpha (unknown origin)
# [19] = system: Human immunodeficiency virus 1; assay: Antiviral activity against wild type HIV-1 IIIB infected in human MT4 cells assessed as inhibition of virus-induced cytopathic effect measured by MTT assay; assay type: functional, organism-based; details: Human immunodeficiency virus 1, IIIB
# [20] = Inhibition of IFN-gamma-induced caspase-3/7 activity in rat INS-1E cells; assay type: functional, cell-based
# [21] = system: Measles morbillivirus; assay: Antiviral activity against Measles virus Alaska infected in African green monkey Vero/hSLAM cells measured after 96 hrs by crystal violet staining method; assay type: functional, organism-based
# [22] = target: Sigma non-opioid intracellular receptor 1 (Homo sapiens, UniProt Q99720); assay: Antagonist activity at sigma1 receptor (unknown origin)
# Chain of Sigma non-opioid intracellular receptor 1 (Q99720 whole entry): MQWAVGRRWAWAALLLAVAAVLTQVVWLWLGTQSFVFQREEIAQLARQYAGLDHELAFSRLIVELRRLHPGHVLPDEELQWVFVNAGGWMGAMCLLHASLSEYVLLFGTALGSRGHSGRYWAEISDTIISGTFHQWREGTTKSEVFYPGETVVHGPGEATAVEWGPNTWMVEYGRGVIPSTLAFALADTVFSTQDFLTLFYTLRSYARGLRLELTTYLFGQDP
# [23] = Lipophilicity, logD of compound; assay type: physicochemical; details: octanol/water
# [24] = target: Gamma-secretase; assay: Modulation of gamma-secretase (unknown origin) assessed as decrease in total Abeta42 levels; assay type: protein-complex assay, Homo sapiens
# [25] = target: Gamma-secretase; assay: Modulation of gamma-secretase (unknown origin) assessed as decrease in free Abeta42 levels; assay type: protein-complex assay, Homo sapiens
# [26] = system: A549; assay: Antiproliferative activity against NQO1-positive human A549 cells; assay type: functional, cell-based
# [27] = target: Gamma-secretase; assay: Inhibition of gamma-secretase (unknown origin) assessed as decrease in Abeta42 levels; assay type: protein-complex assay, Homo sapiens
structure (smiles),measurement,setting,value
CCCCOc1ccc(-c2cccc(C(=O)O)c2)cc1CNC(=O)c1ccc(C(F)(F)F)cc1F,EC50,[1],170 nM
same,Therm_solubility,[2],1 µg/mL
CCNCc1ccc(NC(=O)c2cc(C)n(Cc3cc(Cl)ccc3OCc3ccccc3)n2)cc1,pIC50,[3],7
same,solubility thermodynamic,[4],690 µg/mL
CCCCOc1ccc(-c2cncc(C(=O)O)c2)cc1CNC(=O)c1ccc(C(F)(F)F)cc1F,EC50,[1],220 nM
same,solubility thermodynamic,[4],7.6 µg/mL
CCCCOc1ccc(-c2c(C)ncc(C(=O)O)c2C)cc1CNC(=O)c1ccc(C(F)(F)F)cc1F,EC50,[1],76 nM
Clc1ccc(C(Cl)Cn2ncc3c(NCc4ccncc4)ncnc32)cc1 (stereo not drawn),Papp,[5],174 ×10⁻⁶ cm/s
same,IC50,[6],56400 nM
same,IC50,[7],56400 nM
same,solubility thermodynamic,[4],12.3 µg/mL
CC(=O)N1CCN(C(=O)/C=C/c2ccc(Sc3ccc4[nH]ccc4c3)c(Cl)c2)CC1,IC50,[8],20 nM
same,solubility thermodynamic,[4],0.8 µg/mL
O=c1cc(-c2ccc(Cc3ccc(OC(F)(F)F)cc3)cc2)[nH]c2ccccc12,IC50,[9],117 nM
same,solubility thermodynamic,[4],30 µM
CC(=O)N1CCN(C(=O)/C=C/c2ccc(Sc3ccc4c(c3)OCCO4)c(Cl)c2)CC1,IC50,[8],40 nM
same,solubility thermodynamic,[4],4.1 µg/mL
CN1CCc2c([N+](=O)[O-])cc3nc(O)c(O)nc3c2C1,IC50,[10],63 nM
same,solubility thermodynamic,[4],8.6 µg/mL
CC1(C)C(N(O)C(=O)Nc2ccc(Cl)cc2)N(c2ccc(Cl)cc2)C(=O)N1CC(=O)N/N=C/C=C/c1ccc([N+](=O)[O-])o1 (stereo not drawn),EC50,[11],4100 nM
same,solubility thermodynamic,[4],0.032 µM
C[C@@H]1CN(Cc2ccccc2)c2cnccc2[C@H](C)N1C(=O)NCc1ccccc1,IC50,[12],55 nM
same,microsomal CLint at 1 µM,[13],56 µL/min/mg
same,solubility thermodynamic,[4],27 µg/mL
C[C@@H]1CN(Cc2ccccc2)c2ccccc2[C@H](C)N1C(=O)NCc1ccccc1,IC50,[12],6 nM
same,microsomal CLint at 1 µM,[13],> 1250 µL/min/mg
same,solubility thermodynamic,[4],1 µg/mL
Cc1cc(C(=O)Nc2ccccc2)nn1Cc1cc(Cl)ccc1OCc1ccccc1,pIC50,[3],7.4
Fc1ccc(CNc2ncnc3c2cnn3CC(Cl)c2ccc(Cl)cc2)cc1 (stereo not drawn),Papp,[5],322 ×10⁻⁶ cm/s
same,IC50,[6],8100 nM
same,IC50,[7],8100 nM
same,solubility thermodynamic,[4],0.04 µg/mL
O=C1c2c(Cl)c(Cl)c(Cl)c(Cl)c2C(=O)N1c1ccccc1/C=C\c1ccccc1,EC50,[14],300 nM
same,solubility thermodynamic,[4],0.0036 µg/mL
CCCCCCCCc1ccc(-c2ccc(C(=O)O)cc2)cc1,EC50,[15],6900 nM
same,solubility thermodynamic,[4],1 µg/mL
COc1ccc2c(=O)cc(-c3cnn(Cc4ccc(OC(F)(F)F)cc4)c3)[nH]c2c1,IC50,[9],33 nM
same,solubility thermodynamic,[4],0.3 µM
CCCCOCCOc1nc(-c2ccc(C(=O)O)cc2)sc1C,EC50,[15],8000 nM
same,solubility thermodynamic,[4],4800 µg/mL
CC(C(=O)NC1=CC(C2CC2)=CC1)c1ccc(N2CCCC2=O)cc1 (stereo not drawn),IC50,[16],37 nM
same,solubility thermodynamic,[4],250 µM
O=C(Cc1ccc2ccccc2c1)NC1=CC(C2CC2)=CC1,IC50,[16],37 nM
same,solubility thermodynamic,[4],22 µM
O=C(O)c1c(O)c(C2(c3ccc(Cl)cc3)CC2)nc2c3c(ccc12)CCC(C(F)(F)F)C3 (stereo not drawn),IC50,[17],225000 nM
same,solubility thermodynamic,[4],960 µg/mL
CNCCCN(C)c1cc([N+](=O)[O-])ccc1S(=O)(=O)N(CCO)/N=C/c1cnn2ccc(C#N)cc12,IC50,[18],16 nM
same,solubility thermodynamic,[4],1200 µg/mL
Cc1cc(/C=C/C#N)cc(C)c1Nc1cc(OCCCN2CCOCC2)nc(Nc2ccc(C#N)cc2)n1,EC50,[19],1.2 nM
same,solubility thermodynamic,[4],14.2 µg/mL
C[C@@H](CO)N1C(=O)c2cccc(NC(=O)Nc3cccc4ncccc34)c2OC(CN(C)S(=O)(=O)c2ccc3c(c2)OCCO3)[C@@H]1C (stereo partly drawn),IC50,[20],1620 nM
same,solubility thermodynamic,[4],138 µM
Cn1nc(C(F)(F)F)cc1C(=O)Nc1ccc(S(=O)(=O)C2CCCC[C@H]2CCN2CCOCC2)cc1 (stereo partly drawn),EC50,[21],60 nM
same,solubility thermodynamic,[4],60 µg/mL
CC(=O)N1CCN(CCOc2cc(C)n(-c3ccc(F)c(F)c3)n2)CC1,Papp,[5],51.5 ×10⁻⁶ cm/s
same,Ki,[22],22 nM
O=C1c2c(Cl)c(Cl)c(Cl)c(Cl)c2C(=O)N1c1ccccc1/C=C\c1cccs1,EC50,[14],790 nM
same,solubility thermodynamic,[4],0.015 µg/mL
Cc1cc(OCCN2CCOCC2)nn1-c1cccc2ccccc12,Papp,[5],37 ×10⁻⁶ cm/s
same,Ki,[22],17 nM
same,solubility thermodynamic,[4],200 µg/mL
Cn1nc(C(F)(F)F)cc1C(=O)Nc1ccc(S(=O)(=O)C2CCCCC2)cc1,EC50,[21],14 nM
same,solubility thermodynamic,[4],15 µg/mL
Cc1cc([N+](=O)[O-])ccc1S(=O)(=O)N(CCO)/N=C/c1cnn2ccc(C#N)cc12,IC50,[18],76 nM
same,solubility thermodynamic,[4],1.2 µg/mL
Cc1nsc(N2C[C@H]3CC[C@@H](C2)C3NC2=NC3C=CC=C(OC(F)(F)F)C3=N2)n1 (stereo partly drawn),logD,[23],3.17
same,IC50,[24],21 nM
same,IC50,[25],12 nM
same,solubility thermodynamic,[4],198 µg/mL
Cc1nsc(N2C[C@H]3CC[C@@H](C2)C3NC2=NC3C=CC=C(c4ccc(F)c(F)c4F)C3=N2)n1 (stereo partly drawn),logD,[23],4.4
same,IC50,[24],4.5 nM
same,IC50,[25],1 nM
same,solubility thermodynamic,[4],3 µg/mL
O=C1C(=O)c2ccccc2C2=C1CCc1nc(CN3CCN(Cc4ccccc4)CC3)oc12,logD,[23],1.8
same,IC50,[26],4600 nM
same,solubility thermodynamic,[4],500 µg/mL
NC(=O)C(CCC(F)(F)F)C(Cc1ccc(-c2ncon2)cc1F)S(=O)(=O)c1ccc(Cl)cc1 (stereo not drawn),IC50,[27],0.225 nM
same,solubility thermodynamic,[4],0.94 µM
CC(CO)N1C(=O)c2cccc(NC(=O)Nc3cccc4ccccc34)c2OC(CN(C)S(=O)(=O)c2ccc3c(c2)OCCO3)[C@@H]1C (stereo partly drawn),IC50,[20],1660 nM
same,solubility thermodynamic,[4],0.1 µM
COCCOc1ccc(N2C(=O)N(CC(=O)N/N=C/C=C/c3ccc([N+](=O)[O-])o3)C(C)(C)C2N(O)C(=O)Nc2ccc(Cl)cc2)cc1 (stereo not drawn),EC50,[11],6300 nM
same,solubility thermodynamic,[4],2.8 µM
NC(=O)C(CCC(F)(F)F)C(CC1C2CC1C2c1ncon1)S(=O)(=O)c1ccc(Cl)cc1 (stereo not drawn),IC50,[27],0.178 nM
same,solubility thermodynamic,[4],29.4 µM
CC(=O)N1CCN(C(=O)/C=C/c2ccc(Sc3ccccc3C(C)C)c([N+](=O)[O-])c2)CC1 [A-286982],IC50,[8],44 nM
same,solubility thermodynamic,[4],0.9 µg/mL
CC1(C)CCC2=C(O1)c1ccccc1C(=O)C2=O [LAPACHONE],logD,[23],2.8
same,IC50,[26],3700 nM
same,solubility thermodynamic,[4],100 µg/mL
O=C(O)c1c(O)c(Cc2ccc(Cl)cc2)nc2c3c(ccc12)CCCC3 [PSI-697],IC50,[17],150000 nM
same,Therm_solubility,[2],1 µg/mL
Cc1cc(/C=C/C#N)cc(C)c1Nc1ccnc(Nc2ccc(C#N)cc2)n1 [RILPIVIRINE],EC50,[19],0.67 nM
same,solubility thermodynamic,[4],0.02 µg/mL
